Assay [1] concerns HEK 293T cells. The assay is described as follows: Cell death (MTT assay) of HEK 293T clones carrying dCK variants exposed to AraC. The format is cell-based, human. As to conditions: increasing concentrations of AraC, 72 h, FIG. 8. The source says:
FIG. 8 discloses the cell survival with regard to increasing concentrations of AraC (μM) in presence of the wild type dCK gene (white triangles and solid thick curve) or variants containing point mutations or deletion in the dCK gene (other curves). Each plot represents the average of three independent experiments.
(§1) 80 individual cellular clones at the F17 generation, obtained after transduction of 293T cells at a low multiplicity of infection (and therefore carrying a single variant of the target polynucleotide) have been isolated. The 80 clones have been tested for the kinetic of cell death induced after their exposal to different concentrations of the two anti-cancer drugs, AraC and Gemcitabine, which are cytidine analogues (the natural substrate of dCK) as follows.
Individual clones have been isolated after transduction of HEK 293T cells at low multiplicity of transduction (m.o.i.) and seeding of the transduced cells at limiting dilutions in 96-well plates. […] Seventy-two hours after exposure, cell death has been evaluated for each independent clone and for each drug treatment condition using the MTT assay (Promega) that is a colorimetric test used to quantify cell viability and proliferation. A relative rate of cell death has been calculated for each clone, with respect to the values observed in the plate where no drug was included. […]
Background: Formazan colour is commonly taken as a measure of viable cells.

The subject of assay [2] is Messa 10K cells. As to conditions: Messa 10K cells lacking functional dCK; read-out: Gemcitabine 1050; cited from earlier work.
Assay [3] has as its system Jurkat SLP-76−/−plL2-luc cell clone. The assay is described as follows: Luciferase induction in Jurkat SLP-76-/- pIL2-luc cell clone. As to conditions: IL2 promoter-driven luciferase; PMA and Calcimycine applied together. In kind it is cell-based. The source says:
(§2) Concerning the screening based on the two luciferase-based readouts (either the one based on transcription driven by the NFAT or by IL2), the inventors have constructed two cell lines which as such are also part of the present invention: • the Jurkat SLP-76−/−plL2-luc cell clone, deposited at the CNCM (Paris, France) under accession number I-4236 on Oct. 30, 2009, in the name of Institut Pasteur, 25-28 rue du Docteur Roux, 75724 Paris Cedex 15, and resulting from the introduction in Jurkat J14 cells (SLP-76−/−) of the firefly luciferase gene under the control of two copies of the IL2 promoter; and • the Jurkat SLP-76−/−NFAT-luc cell clone, deposited at the CNCM under accession number I-4237 on Oct. 30, 2009, in the name of Institut Pasteur, 25-28 rue du Docteur Roux, 75724 Paris Cedex 15, and resulting from the introduction in Jurkat J14 cells (SLP-76−/−) of the firefly luciferase gene preceded by three copies of the NFAT binding site.

Assay [4] concerns Jurkat SLP-76−/−NFAT-luc cell clone. Put plainly: Luciferase induction in Jurkat SLP-76-/- NFAT-luc cell clone. In kind it is cell-based. As to conditions: NFAT binding site-driven luciferase; PMA and Calcimycine applied together.
Source text: as §2

Assay [5] deals with HEK 293T cells. The assay is described as follows: Cell death (MTT assay) of HEK 293T clones carrying dCK variants exposed to Gemcitabine. The format is cell-based, human. The settings on record: 10 nM Gemcitabine, average of 4 independent experiments.
Source text: as §1
Individual clones have been isolated after transduction of HEK 293T cells at low multiplicity of transduction (m.o.i.) and seeding of the transduced cells at limiting dilutions in 96-well plates. Individual cell clones growing in the presence of puromycin have then been expanded and seeded in parallel in several replicated 96-well plates. All these plates, with the exception of one to use as control, have been exposed to the anticancer drug at different concentrations, while the control plate has been maintained in the absence of drug. Seventy-two hours after exposure, cell death has been evaluated for each independent clone and for each drug treatment condition using the MTT assay (Promega) that is a colorimetric test used to quantify cell viability and proliferation. A relative rate of cell death has been calculated for each clone, with respect to the values observed in the plate where no drug was included. […]

The subject of assay [6] is Messa 10K cells. The assay is described as follows: Sensitivity to Gemcitabine of Messa 10K cells transduced with dCK variants. In kind it is cell-based, human. As for the experimental part: FIG. 10 discloses (A) the cell survival with regard to increasing concentrations of Gemcitabine (nM) in untransduced Messa 10K cells (grey solid line), in presence of the wild type dCK gene (large dashed lines) or in presence of dCK G12 variants gene (black solid lines); (B) the survival of Messa 10K cells in presence of 75 nM Gemcitabine in untransduced Messa 10K cells (Messa10K), in Messa 10K cells transduced with a viral vector carrying a wild type dCK gene (M-dCK), in Messa 10K cells transduced with a viral vector carrying the E8 variant dCK gene with mutations G>A 739 et C>A 745 (M-E8) or in Messa 10K cells transduced with a viral vector carrying the G12 variant dCK gene (M-G12), and (C) Western Blot to detect dCK expression on cell lysates, using a polyclonal rabbit antibody; M: untransduced Messa10K cells; M-dCK: Messa10K transduced with a vector carrying the wt dCK gene (4 independent populations); M-G12: Messa10K transduced with a vector carrying the G12 mutant (4 independent populations).
FIG. 11 discloses the cell survival with regard to increasing concentrations of Gemcitabine (nM) in untransduced Messa10K cells (small dashed line), in Messa10K cells transduced with a vector carrying the wt dCK gene (large dashed line; n=5), in Messa10K cells transduced with a vector carrying the sequence of the dCK G12 variant re-inserted in a wild-type backbone (light grey line; n=5), in Messa10K cells transduced with a vector rescued from the 293T-G12-F16 cell line (dark grey line; n=5) and in Messa10K cells transduced with a vector rescued from the 293T-G12-F17 cell line (solid black line; n=5). […]
For these reasons, a strategy for the screening on Messa 10K cells (illustrated in FIG. 9) was set up, aiming at averaging the epigenetic effects possibly influencing the final phenotype by analysing a population of target cells containing the same dCK variant inserted in different sites of the genome. […] The totality of the clones of the same variant were cultivated and analysed for the sensitivity to Gemcitabine in the assay previously described. […]

As for “G7: dCK variant with a G to A transition at position 521, leading to the G174E variation at the amino acid level [Clone G7]”, the “cell death induced by AraC compared with wt dCK” value with HEK 293T cells [1] is “clear tendency to induce cell death”.
For the compound `Nc1ccn([C@@H]2O[C@H](CO)[C@@H](O)C2(F)F)c(=O)n1` [Gemcitabine], the IC50 in the assay on Messa 10K cells [2] was 11 µM.
Consider `CCCCCCCCCCCCCC(=O)O[C@@H]1[C@@H](C)[C@@]2(O)[C@@H](C=C(CO)C[C@]3(O)C(=O)C(C)=C[C@@H]23)[C@@H]2C(C)(C)[C@]12OC(C)=O` [Phorbol Myristate Acetate], for which the induction of luciferase result in assay [3] and in assay [4] was “strong induction” throughout.
On to `CNc1ccc2oc(C[C@H]3O[C@@]4(CC[C@H]3C)O[C@H]([C@H](C)C(=O)c3ccc[nH]3)[C@H](C)C[C@H]4C)nc2c1C(=O)O` [Calcimycine], for which the induction of luciferase entry in assay [3] and in assay [4] was “strong induction” throughout.
For the compound “G12: dCK variant with a G to A transition at position 511 (E171K at the amino acid level) [Clone G12]”, the “ratio of cell survival in G12 cells/dCK cells” value with HEK 293T cells [5] is 0.50±0.11. Moreover, the cell death ratio in the assay with Messa 10K cells [6] (75 nM Gemcitabine, transduced Messa 10K cells, FIG. 10B) was 90%. The “sensitivity to Gemcitabine conferred after re-insertion in a wild type lentiviral vector” value in the assay on Messa 10K cells [6] (G12 subcloned from cell line F16, Messa 10K cells, FIG. 11) is “maintains the ability to confer increased sensitivity to Gemcitabine”. The “cell death by Gemcitabine compared with wild type dCK” value with Messa 10K cells [6] (transduced Messa 10K cells, four rounds of screening, FIG. 10A/10B) is “cell death ratio higher than the one induced from a wild type dCK”.

(Values after patent publication US9518271B2, “Lentiviral-based vector and its use in directed evolution of genomic regions, genes and polynucleotides” (CENTRE NATIONAL DE LA RECHERCHE SCIENTIFIQUE, priority 2009, dated 2016).)
